# *1 amine or outer side, *2 acyl side, *3 side chain or, on linkers, in order; H or OH if unused. Where a SMILES comes first, the peptide text is derived from it. Bridges are numbered along the chain shown (N, C = ends). [ ]: non-standard residue; d: D form. The star is where a group is joined. hPhe(3-Cl-4-CF3) = N[C@@H](CCc1ccc(C(F)(F)F)c(Cl)c1)C(=O)O; X45 = O=C([C@H](Cc1ccc(C(F)(F)F)cc1)N(CCCF)[*:1])[*:2]; X19 = CCCN([C@@H](CC1CCC(F)(F)CC1)C(=O)[*:2])[*:1]; NMeGly(cPent) = CN[C@H](C(=O)O)C1CCCC1; NMeD = CN[C@@H](CC(=O)O)C(=O)O; NMeL = CN[C@@H](CC(C)C)C(=O)O; Morpholide = C1CN(*)CCO1; NMeA = CN[C@@H](C)C(=O)O; Ac5c = NC1(C(=O)O)CCCC1; Aze = O=C(O)[C@@H]1CCN1; Sar = CNCC(=O)O
# Columns and labels:
# [1] = biological target: GDP-bound NRAS wild-type protein (Homo sapiens, UniProt P01111); assay: Binding to NRAS by surface plasmon resonance (SPR), Single Cycle Kinetics; details: SPR, GDP-bound NRAS wild-type protein vs GDP-bound KRAS wild-type protein
# [2] = biological target: GDP-bound KRAS wild-type protein (Homo sapiens, UniProt P01116); assay: Binding to KRAS by surface plasmon resonance (SPR), Single Cycle Kinetics; details: SPR Single Cycle Kinetics, GDP-bound KRAS wild-type protein, 1:1 binding model; read-out: KRAS KD
# [3] = biological target: GDP-bound HRAS wild-type protein (Homo sapiens, UniProt P01112); assay: Binding to HRAS by surface plasmon resonance (SPR), Single Cycle Kinetics; details: SPR, GDP-bound HRAS wild-type protein vs GDP-bound KRAS wild-type protein
# GDP-bound HRAS wild-type protein, sequence (P01112 whole entry): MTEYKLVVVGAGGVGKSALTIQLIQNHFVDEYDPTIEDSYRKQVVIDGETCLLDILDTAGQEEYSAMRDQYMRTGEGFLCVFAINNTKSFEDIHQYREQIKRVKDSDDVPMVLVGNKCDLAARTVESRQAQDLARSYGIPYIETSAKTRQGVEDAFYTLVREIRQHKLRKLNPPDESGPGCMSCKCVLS
# GDP-bound NRAS wild-type protein, sequence (P01111 whole entry): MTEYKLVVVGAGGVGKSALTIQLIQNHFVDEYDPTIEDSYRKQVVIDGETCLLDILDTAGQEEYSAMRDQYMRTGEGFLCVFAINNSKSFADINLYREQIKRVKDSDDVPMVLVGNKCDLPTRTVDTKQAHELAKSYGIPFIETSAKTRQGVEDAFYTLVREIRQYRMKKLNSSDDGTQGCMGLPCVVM
# GDP-bound KRAS wild-type protein, sequence (P01116 whole entry): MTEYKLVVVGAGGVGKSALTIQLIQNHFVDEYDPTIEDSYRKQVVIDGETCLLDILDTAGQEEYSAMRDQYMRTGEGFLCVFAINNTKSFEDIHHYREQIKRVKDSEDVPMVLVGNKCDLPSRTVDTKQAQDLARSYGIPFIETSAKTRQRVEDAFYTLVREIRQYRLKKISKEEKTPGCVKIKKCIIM
Kd [2] [nM],Compound,NRAS/KRAS (ratio of KD value with respect to NRAS to KD value with respect to KRAS) [1],HRAS/KRAS (ratio of KD value with respect to HRAS to KD value with respect to KRAS) [3]
12,CCC(CC)[C@@H]1NC(=O)[C@H](CC(C)C)N(C)C(=O)C[C@@H](C(=O)N2CCOCC2)N(C)C(=O)[C@H](C2CCCC2)N(C)C(=O)C2(CCCC2)NC(=O)[C@@H]2CCCN2C(=O)[C@H](CCc2cc(F)c(C(F)(F)F)c(F)c2)NC(=O)CN(C)C(=O)[C@H](Cc2ccc(C(F)(F)F)cc2)N2CCCCC[C@@H](C2=O)N(C)C(=O)CN(C)C1=O [PP0523],A (a compound having 10 or more and less than 20 is denoted as A),B (a compound having 3 or more and less than 10 is denoted as B)
0.11,CC[C@H](C)[C@@H]1NC(=O)[C@H](CC(C)C)N(C)C(=O)C[C@@H](C(=O)N2CCOCC2)N(C)C(=O)[C@H](C2CCCC2)N(C)C(=O)C2(CCCC2)NC(=O)[C@@H]2CCCN2C(=O)[C@H](CCc2ccc(C(F)(F)F)c(Cl)c2)NC(=O)CN(C)C(=O)[C@H](Cc2ccc(C(F)(F)F)cc2)N(CCCF)C(=O)CN(C)C(=O)CN(C)C1=O [PP0524] ([NMeL]I[Sar][Sar][X45][Sar][hPhe(3-Cl-4-CF3)]P[Ac5c][NMeGly(cPent)][NMeD]-Morpholide; lactam N-11),B (a compound having 3 or more and less than 10 is denoted as B),C (A compound having a KD ratio of 0.1 or more and less than 3 is denoted as C)
0.14,CC[C@H](C)[C@@H]1NC(=O)[C@H](CC(C)C)N(C)C(=O)C[C@@H](C(=O)N2CCOCC2)N(C)C(=O)[C@H](C2CCCC2)N(C)C(=O)C2(CCCC2)NC(=O)[C@@H]2CCCN2C(=O)[C@H](CCc2ccc(C(F)(F)F)c(Cl)c2)NC(=O)CN(C)C(=O)[C@H](Cc2ccc(C(F)(F)F)cc2)N(CCCF)C(=O)[C@@H]2CCN2C(=O)[C@H](C)N(C)C1=O [PP0525] ([NMeL]I[NMeA][Aze][X45][Sar][hPhe(3-Cl-4-CF3)]P[Ac5c][NMeGly(cPent)][NMeD]-Morpholide; lactam N-11),C (A compound having a KD ratio of 0.1 or more and less than 3 is denoted as C),B (a compound having 3 or more and less than 10 is denoted as B)
0.074,CCCN1C(=O)CN(C)C(=O)CN(C)C(=O)[C@H]([C@@H](C)CC)NC(=O)[C@H](CC(C)C)N(C)C(=O)C[C@@H](C(=O)N2CCOCC2)N(C)C(=O)[C@H](C2CCCC2)N(C)C(=O)C2(CCCC2)NC(=O)[C@@H]2CCCN2C(=O)[C@H](CCc2ccc(C(F)(F)F)c(Cl)c2)NC(=O)CN(C)C(=O)[C@@H]1CC1CCC(F)(F)CC1 [PP0526] ([NMeL]I[Sar][Sar][X19][Sar][hPhe(3-Cl-4-CF3)]P[Ac5c][NMeGly(cPent)][NMeD]-Morpholide; lactam N-11),B (a compound having 3 or more and less than 10 is denoted as B),C (A compound having a KD ratio of 0.1 or more and less than 3 is denoted as C)
0.21,CCCN1C(=O)[C@@H]2CCN2C(=O)[C@H](C)N(C)C(=O)[C@H]([C@@H](C)CC)NC(=O)[C@H](CC(C)C)N(C)C(=O)C[C@@H](C(=O)N2CCOCC2)N(C)C(=O)[C@H](C2CCCC2)N(C)C(=O)C2(CCCC2)NC(=O)[C@@H]2CCCN2C(=O)[C@H](CCc2ccc(C(F)(F)F)c(Cl)c2)NC(=O)CN(C)C(=O)[C@@H]1CC1CCC(F)(F)CC1 [PP0527] ([NMeL]I[NMeA][Aze][X19][Sar][hPhe(3-Cl-4-CF3)]P[Ac5c][NMeGly(cPent)][NMeD]-Morpholide; lactam N-11),C (A compound having a KD ratio of 0.1 or more and less than 3 is denoted as C),C (A compound having a KD ratio of 0.1 or more and less than 3 is denoted as C)
0.17,CC[C@H](C)[C@@H]1NC(=O)[C@H](CC(C)C)N(C)C(=O)C[C@@H](C(=O)N2CCOCC2)N(C)C(=O)[C@H](C2CCCC2)N(C)C(=O)C2(CCCC2)NC(=O)[C@@H]2CCCN2C(=O)[C@H](CCc2ccc(C(F)(F)F)c(Cl)c2)NC(=O)CN(C)C(=O)[C@H](Cc2ccc(Cl)cc2)N2CC=CC[C@@H](C2=O)N(C)C(=O)CN(C)C1=O [PP0533],C (A compound having a KD ratio of 0.1 or more and less than 3 is denoted as C),C (A compound having a KD ratio of 0.1 or more and less than 3 is denoted as C)
0.16,CC[C@H](C)[C@@H]1NC(=O)[C@H](CC(C)C)N(C)C(=O)C[C@@H](C(=O)N2CCOCC2)N(C)C(=O)[C@H](C2CCCC2)N(C)C(=O)C2(CCCC2)NC(=O)[C@@H]2CCCN2C(=O)[C@H](CCc2ccc(C(F)(F)F)c(Cl)c2)NC(=O)CN(C)C(=O)[C@H](Cc2ccc(OC)cc2)N2CCCC[C@@H](C2=O)N(C)C(=O)CN(C)C1=O [PP0534],B (a compound having 3 or more and less than 10 is denoted as B),B (a compound having 3 or more and less than 10 is denoted as B)
0.5,CC[C@H](C)[C@@H]1NC(=O)[C@H](CC(C)C)N(C)C(=O)C[C@@H](C(=O)N2CCOCC2)N(C)C(=O)[C@H](C2CCCC2)N(C)C(=O)C2(CCCC2)NC(=O)[C@@H]2CCCN2C(=O)[C@H](CCc2ccc(C(F)(F)F)c(Cl)c2)NC(=O)CN(C)C(=O)[C@H](Cc2ccc(OC)cc2)N2CC=CC[C@@H](C2=O)N(C)C(=O)CN(C)C1=O [PP0535],C (A compound having a KD ratio of 0.1 or more and less than 3 is denoted as C),B (a compound having 3 or more and less than 10 is denoted as B)
0.63,CC[C@H](C)[C@@H]1NC(=O)[C@H](CC(C)C)N(C)C(=O)C[C@@H](C(=O)N2CCOCC2)N(C)C(=O)[C@H](C2CCCC2)N(C)C(=O)C2(CCCC2)NC(=O)[C@@H]2CCCN2C(=O)[C@H](CCc2ccc(C(F)(F)F)c(Cl)c2)NC(=O)CN(C)C(=O)[C@H](Cc2ccc(OC(F)(F)F)cc2)N2CCCC[C@@H](C2=O)N(C)C(=O)CN(C)C1=O [PP0536],B (a compound having 3 or more and less than 10 is denoted as B),B (a compound having 3 or more and less than 10 is denoted as B)
5.8,CC[C@H](C)[C@@H]1NC(=O)[C@H](CC(C)C)N(C)C(=O)C[C@@H](C(=O)N2CCOCC2)N(C)C(=O)[C@H](C2CCCC2)N(C)C(=O)C2(CCCC2)NC(=O)[C@@H]2CCCN2C(=O)[C@H](CCc2ccc(C(F)(F)F)c(Cl)c2)NC(=O)CN(C)C(=O)[C@H](Cc2ccc(OC(F)(F)F)cc2)N2CC=CC[C@@H](C2=O)N(C)C(=O)CN(C)C1=O [PP0537],C (A compound having a KD ratio of 0.1 or more and less than 3 is denoted as C),C (A compound having a KD ratio of 0.1 or more and less than 3 is denoted as C)
0.67,CC[C@H](C)[C@@H]1NC(=O)[C@H](CC(C)C)N(C)C(=O)C[C@@H](C(=O)N2CCOCC2)N(C)C(=O)[C@H](C2CCCC2)N(CC)C(=O)C2(CCCC2)NC(=O)[C@@H]2CCCN2C(=O)[C@H](CCc2cc(F)c(C(F)(F)F)c(F)c2)NC(=O)CN(C)C(=O)[C@H](Cc2ccc(C(F)(F)F)cc2)N2CCCC[C@@H](C2=O)N(C)C(=O)CN(C)C1=O [PP0538],B (a compound having 3 or more and less than 10 is denoted as B),B (a compound having 3 or more and less than 10 is denoted as B)
0.17,CC[C@H](C)[C@@H]1NC(=O)[C@H](CC(C)C)N(C)C(=O)C[C@@H](C(=O)N2CCOCC2)N(CC)C(=O)[C@H](C2CCCC2)N(C)C(=O)C2(CCCC2)NC(=O)[C@@H]2CCCN2C(=O)[C@H](CCc2cc(F)c(C(F)(F)F)c(F)c2)NC(=O)CN(C)C(=O)[C@H](Cc2ccc(C(F)(F)F)cc2)N2CCCC[C@@H](C2=O)N(C)C(=O)CN(C)C1=O [PP0539],B (a compound having 3 or more and less than 10 is denoted as B),B (a compound having 3 or more and less than 10 is denoted as B)
17,CC[C@H](C)[C@@H]1NC(=O)[C@H](CC(C)C)N(C)C(=O)C[C@@H](C(=O)N2CCOCC2)N(C)C(=O)[C@H](C2CCCC2)NC(=O)C2(CCCC2)NC(=O)[C@@H]2CCCN2C(=O)[C@H](CCc2cc(F)c(C(F)(F)F)c(F)c2)NC(=O)CN(C)C(=O)[C@H](Cc2ccc(C(F)(F)F)cc2)N2CCCC[C@@H](C2=O)N(C)C(=O)CN(C)C1=O [PP0540],B (a compound having 3 or more and less than 10 is denoted as B),B (a compound having 3 or more and less than 10 is denoted as B)
0.11,CC[C@H](C)[C@@H]1NC(=O)[C@H](CC(C)C)N(C)C(=O)C[C@@H](C(=O)N2CCOCC2)N(C)C(=O)[C@H](C2CCCC2)N(C)C(=O)C2(CCCC2)NC(=O)[C@@H]2CCCN2C(=O)[C@H](CCc2cc(F)c(C(F)(F)F)c(F)c2)NC(=O)CN(C)C(=O)[C@H](Cc2ccc(C(F)(F)F)cc2)N2CCCC[C@@H](C2=O)N(C)C(=O)CNC1=O [PP0542],B (a compound having 3 or more and less than 10 is denoted as B),B (a compound having 3 or more and less than 10 is denoted as B)

# — US20240158446A1, “CYCLIC COMPOUND HAVING SELECTIVE INHIBITORY ACTION ON KRAS OVER HRAS AND NRAS” (CHUGAI SEIYAKU KABUSHIKI KAISHA, priority 2021, published 2024)
